Source: patent publication US20260199483A1 (Bright Angel Therapeutics Inc., priority 2022, published 2026)
pIC50: −log10 of the molar value. In brackets after ≈: the same amount, converted by molar mass.

What was measured:
[1] = target: T1, purified recombinant Yck2 (Candida albicans, UniProt A0A1D8PKB4); test: HotSpot kinase assay; assay type: biochemical, C. albicans
T1 construct: Yck2 residues 37-345 were PCR amplified from C. albicans genomic DNA; His6 (N); TEV protease site (N); made in house; host or cells: E. coli BL21(DE3)-Gold
T1 sequence (A0A1D8PKB4 entry or part of it): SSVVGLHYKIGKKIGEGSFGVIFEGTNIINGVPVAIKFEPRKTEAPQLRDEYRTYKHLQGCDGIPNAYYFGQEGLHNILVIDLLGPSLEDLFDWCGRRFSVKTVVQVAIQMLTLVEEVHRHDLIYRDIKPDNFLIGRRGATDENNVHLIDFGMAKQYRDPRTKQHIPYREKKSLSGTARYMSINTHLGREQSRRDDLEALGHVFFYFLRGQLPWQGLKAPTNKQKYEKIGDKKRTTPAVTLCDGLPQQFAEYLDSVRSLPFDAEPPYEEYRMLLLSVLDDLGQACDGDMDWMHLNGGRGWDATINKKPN
Method: IC50s were determined using the in vitro HotSpot kinase assay (purified enzymes, ^33P-ATP, an appropriate substrate and 1 μM ATP). For enzyme inhibition assays, compounds were tested in range of ten concentrations from 10 uM to 0.0005 uM using purified recombinant Yck2. Reaction conditions were 1 uM ATP, one hour incubation with inhibitor, and kinase activity detected using 33-ATP phosphorylation of an appropriately selected peptide substrate.
Yck2 residues 37-345 were PCR amplified from C. albicans genomic DNA and subcloned into the vector pMCSG53, which codes for a N-terminal His6 tag, TEV protease site, followed by the Yck2 protein. E. coli BL21(DE3)-Gold competent cells were transformed with this plasmid and the Yck2 protein was purified using methodology previously described (Stogios et al., ACS Chem. Biol. 13, 1322-1332 (2018)).

[2] = tested on: CaCi2; test: Antifungal sensitivity testing (broth microdilution MIC); assay type: cell-based; details: CaCi2, 96-well broth microdilution, compounds in DMSO
Method: Minimum inhibitory concentrations (MICs) were determined in flat bottom, 96-well plate format using a modified broth microdilution protocol as previously described (Singh et al., PLoS Pathog. 5, e1000532 (2009); LaFayette et al., PLoS Pathog. 6, 79-80 (2010)). Compounds were formulated in dimethyl sulfoxide (DMSO, Sigma-Aldrich Co.). Each compound was tested in duplicate in at least two independent experiments.

Q: Which results are given for `O=C(NC[C@@](O)(Cn1cncn1)c1ccc(F)cc1F)c1ccc2c(-c3ccncc3)c(-c3ccc(F)cc3)nn2c1` [Compound I-117, (R)-N-(2-(2,4-difluorophenyl)-2-hydroxy-3-(1H-1,2,4-triazol-1-yl)propyl)-2-(4-fluorophenyl)-3-(pyridin-4-yl)pyrazolo[1,5-a]pyridine-6-carboxamide]?
A: pIC50 [1]: 8.29; MIC50 [2]: 0.195 µM (≈ 0.111 µg/mL)

Q: How did the pIC50 [1] turn out when `Nc1nccc(-c2c(-c3ccc(F)cc3)ncn2C2CCN(C3CCN(CC(O)(Cn4cncn4)c4ccc(F)cc4F)CC3)CC2)n1` (centres unmarked) [Compound I-224] was run?
A: 7.14

Q: What about the MIC50 [2] of the same compound?
A: 25 µM (≈ 16.5 µg/mL)

Q: How did the pIC50 [1] turn out when `O=C(NC[C@](O)(Cn1cncn1)c1ccc(F)cc1F)c1ccc2c(-c3ccncc3)c(-c3ccc(F)cc3)nn2c1` [Compound I-116, (S)-N-(2-(2,4-difluorophenyl)-2-hydroxy-3-(1H-1,2,4-triazol-1-yl)propyl)-2-(4-fluorophenyl)-3-(pyridin-4-yl)pyrazolo[1,5-a]pyridine-6-carboxamide] was run?
A: 8.10

Q: What about the MIC50 [2] of the same compound?
A: 6.25 µM (≈ 3.56 µg/mL)

Q: With `OC(CN1CCC(Oc2cccc3c(-c4ccncc4)c(-c4ccc(F)cc4)nn23)CC1)(Cn1cncn1)c1ccc(F)cc1F` (centres unmarked) [Compound I-154, 2-(2,4-difluorophenyl)-1-(4-((2-(4-fluorophenyl)-3-(pyridin-4-yl)pyrazolo[1,5-a]pyridin-7-yl)oxy)piperidin-1-yl)-3-(1H-1,2,4-triazol-1-yl)propan-2-ol] as the compound, how does the pIC50 [1] read?
A: 6.75

Q: And the MIC50 [2]?
A: 0.195 µM (≈ 0.122 µg/mL)

Q: With `O=C(NC1CCN(CC(O)(Cn2cncn2)c2ccc(F)cc2F)CC1)c1ccc2c(-c3ccncc3)c(-c3ccc(F)cc3)nn2c1` (centres unmarked) [Compound I-100, N-(1-(2-(2,4-difluorophenyl)-2-hydroxy-3-(1H-1,2,4-triazol-1-yl)propyl)piperidin-4-yl)-2-(4-fluorophenyl)-3-(pyridin-4-yl)pyrazolo[1,5-a]pyridine-6-carboxamide] as the compound, how does the pIC50 [1] read?
A: 7.48

Q: What about the MIC50 [2] of the same compound?
A: 0.0651 µM (≈ 0.0425 µg/mL)

Q: Which results are given for `Cn1cc(-c2ccnc3c2C(=O)N(CC2CCN(C[C@](O)(Cn4cncn4)c4ccc(F)cc4F)CC2)C3)c(-c2ccc(F)cc2)n1` [Compound I-238, (S)-6-((1-(2-(2,4-difluorophenyl)-2-hydroxy-3-(1H-1,2,4-triazol-1-yl)propyl)piperidin-4-yl)methyl)-4-(3-(4-fluorophenyl)-1-methyl-1H-pyrazol-4-yl)-6,7-dihydro-5H-pyrrolo[3,4-b]pyridin-5-one]?
A: pIC50 [1]: 8.11; MIC50 [2]: 0.781 µM (≈ 0.502 µg/mL)

Q: Which MIC50 [2] does the source give for `[2H]C([2H])(NCC(O)(Cn1cncn1)c1ccc(F)cc1F)c1ccc2c(-c3ccncc3)c(-c3ccc(F)cc3)nn2c1` (centres unmarked) [Compound I-261, 2-(2,4-difluorophenyl)-1-(((2-(4-fluorophenyl)-3-(pyridin-4-yl)pyrazolo[1,5-a]pyridin-6-yl)methyl-d2)amino)-3-(1H-1,2,4-triazol-1-yl)propan-2-ol] here?
A: 0.195 µM (≈ 0.109 µg/mL)

Q: For `OC(Cn1cncn1)(c1ccc(F)cc1F)C(F)(F)c1ccc(-c2ccc(CNCc3ccc4c(-c5ccncc5)c(-c5ccc(F)cc5)nn4c3)cc2)cn1` (centres unmarked) [Compound I-262, 2-(2,4-difluorophenyl)-1,1-difluoro-1-(5-(4-((((2-(4-fluorophenyl)-3-(pyridin-4-yl)pyrazolo[1,5-a]pyridin-6-yl)methyl)amino)methyl)phenyl)pyridin-2-yl)-3-(1H-1,2,4-triazol-1-yl)propan-2-ol], which MIC50 [2] is on record?
A: 0.293 µM (≈ 0.222 µg/mL)

Q: How did the pIC50 [1] turn out when `Cn1cc(-c2ccncc2COC2CCN(CC(O)(Cn3cncn3)c3ccc(F)cc3F)CC2)c(-c2ccc(F)cc2)n1` (centres unmarked) [Compound I-90, 2-(2,4-difluorophenyl)-1-(4-((4-(3-(4-fluorophenyl)-1-methyl-1H-pyrazol-4-yl)pyridin-3-yl)methoxy)piperidin-1-yl)-3-(1H-1,2,4-triazol-1-yl)propan-2-ol] was run?
A: 7.32

Q: What about the MIC50 [2] of the same compound?
A: 0.586 µM (≈ 0.354 µg/mL)

Q: With `Cn1cc(-c2ccnc3c2C(=O)N(CC2CCN(CC(O)(Cn4cncn4)c4ccc(F)cc4F)CC2)C3)c(-c2ccc(F)cc2)n1` (centres unmarked) [Compound I-230, 6-((1-(2-(2,4-difluorophenyl)-2-hydroxy-3-(1H-1,2,4-triazol-1-yl)propyl)piperidin-4-yl)methyl)-4-(3-(4-fluorophenyl)-1-methyl-1H-pyrazol-4-yl)-6,7-dihydro-5H-pyrrolo[3,4-b]pyridin-5-one] as the compound, how does the pIC50 [1] read?
A: 8.53

Q: What about the MIC50 [2] of the same compound?
A: 1.88 µM (≈ 1.21 µg/mL)

Q: Which MIC50 [2] does the source give for `Nc1nccc(-c2c(-c3ccc(F)cc3)ncn2C2CCN(CC(O)(Cn3cncn3)c3ccc(F)cc3F)CC2)n1` (centres unmarked) [Compound I-32, 1-(4-(5-(2-aminopyrimidin-4-yl)-4-(4-fluorophenyl)-1H-imidazol-1-yl)piperidin-1-yl)-2-(2,4-difluorophenyl)-3-(1H-1,2,4-triazol-1-yl)propan-2-ol] here?
A: > 50 µM

Q: What does the source list for `Nc1nccc(-c2c(-c3ccc(F)cc3)ncn2C2CCN(CCCn3c4c(c5cc(Cl)ccc53)CCNC4)CC2)n1` [Compound I-232, 4-(1-(1-(3-(6-chloro-1,2,3,4-tetrahydro-9H-pyrido[3,4-b]indol-9-yl)propyl)piperidin-4-yl)-4-(4-fluorophenyl)-1H-imidazol-5-yl)pyrimidin-2-amine]?
A: pIC50 [1]: 8.58; MIC50 [2]: > 25 µM

Q: With `O[C@@](CNCc1ccc2c(-c3ccncc3)c(-c3ccc(F)cc3)nn2c1)(Cn1cncn1)c1ccc(F)cc1F` [Compound I-253, (S)-2-(2,4-difluorophenyl)-1-(((2-(4-fluorophenyl)-3-(pyridin-4-yl)pyrazolo[1,5-a]pyridin-6-yl)methyl)amino)-3-(1H-1,2,4-triazol-1-yl)propan-2-ol] as the compound, how does the pIC50 [1] read?
A: 8.23

Q: What about the MIC50 [2] of the same compound?
A: 0.137 µM (≈ 0.0761 µg/mL)

Q: With `Cn1cc(-c2ccncc2COCC[C@@](O)(Cn2cncn2)c2ccc(F)cc2F)c(-c2ccc(F)cc2)n1` [Compound I-236, (S)-2-(2,4-difluorophenyl)-4-((4-(3-(4-fluorophenyl)-1-methyl-1H-pyrazol-4-yl)pyridin-3-yl)methoxy)-1-(1H-1,2,4-triazol-1-yl)butan-2-ol] as the compound, how does the pIC50 [1] read?
A: 6.77

Q: And the MIC50 [2]?
A: 2.34 µM (≈ 1.25 µg/mL)

Q: With `Nc1nccc(-c2c(-c3ccc(F)cc3)ncn2C2CCN(CCCC(O)(Cn3cncn3)c3ccc(F)cc3F)CC2)n1` (centres unmarked) [Compound I-58, 5-(4-(5-(2-aminopyrimidin-4-yl)-4-(4-fluorophenyl)-1H-imidazol-1-yl)piperidin-1-yl)-2-(2,4-difluorophenyl)-1-(1H-1,2,4-triazol-1-yl)pentan-2-ol] as the compound, how does the pIC50 [1] read?
A: 8.50

Q: And the MIC50 [2]?
A: > 25 µM

Q: How did the pIC50 [1] turn out when `O=C(NCC1CCN(CC(O)(Cn2cncn2)c2ccc(F)cc2F)CC1)c1ccc2c(-c3ccncc3)c(-c3ccc(F)cc3)nn2c1` (centres unmarked) [Compound I-147, N-((1-(2-(2,4-difluorophenyl)-2-hydroxy-3-(1H-1,2,4-triazol-1-yl)propyl)piperidin-4-yl)methyl)-2-(4-fluorophenyl)-3-(pyridin-4-yl)pyrazolo[1,5-a]pyridine-6-carboxamide] was run?
A: 7.43

Q: What about the MIC50 [2] of the same compound?
A: 0.0977 µM (≈ 0.0651 µg/mL)

Q: What does the source list for `O=C(NCCC(O)(Cn1cncn1)c1ccc(F)cc1F)c1ccc2c(-c3ccncc3)c(-c3ccc(F)cc3)nn2c1` (centres unmarked) [Compound I-148, N-(3-(2,4-difluorophenyl)-3-hydroxy-4-(1H-1,2,4-triazol-1-yl)butyl)-2-(4-fluorophenyl)-3-(pyridin-4-yl)pyrazolo[1,5-a]pyridine-6-carboxamide]?
A: pIC50 [1]: 8.79; MIC50 [2]: 6.25 µM (≈ 3.65 µg/mL)

Q: How did the pIC50 [1] turn out when `Cn1cc(-c2ccncc2CNC2CCN(CC(O)(Cn3cncn3)c3ccc(F)cc3F)CC2)c(-c2ccc(F)cc2)n1` (centres unmarked) [Compound I-4, 2-(2,4-difluorophenyl)-1-(4-(((4-(3-(4-fluorophenyl)-1-methyl-1H-pyrazol-4-yl)pyridin-3-yl)methyl)amino)piperidin-1-yl)-3-(1H-1,2,4-triazol-1-yl)propan-2-ol] was run?
A: 6.75
